Reference: patent US20230149418A1, “METHODS AND SYNERGIC COMPOSITIONS FOR TREATING VIRAL INFECTIONS” (HADASIT MEDICAL RESEARCH SERVICES AND DEVELOPMENT LTD., priority 2018, published 2023)
“And” between values parts separate entries of the source, which are not always exact repeats. Identical values can stand only once. Like-named read-outs stand apart in the source and are kept apart here.

Test system: HCMV TB40/E strain
Test: Plaque reduction assay, HCMV TB40/E strain in human foreskin fibroblasts, single drugs and 2-drug combinations (Chou-Talalay)
Format: cell-based, human cytomegalovirus
Settings: for Dose of drug alone at Fa 0.9: Fa 0.9, drug alone; for EC50: Human betaherpesvirus 5, Fibroblast
Procedure: The CMV strain used was TB40/E. The CMV strain was propagated and tittered in human foreskin fibroblasts (HFF) cells. Cell-free virus stocks and cell-associated clinical isolates were maintained at -70° C. Viral stocks were tittered by serial 10-fold dilution in 24-well tissue culture plates containing HFF monolayers overlaid with agarose-medium. After incubation for 7 to 14 days, plaques were enumerated, and virus titer was determined as plaque forming units (PFU) per milliliter (ml). Stocks of artemisone (10 mM), ganciclovir (10 mM), BDCRB (120 mM), brincidofovir (1 mM), maribavir (10 mM) and letermovir (10 mM) were prepared in DMSO or H2O.
Cell monolayers were inoculated in 24-well culture plates with 0.2 ml of virus suspension containing 60 to 100 PFU per well. After adsorption for 60 -120 min at 37° C., the inoculum was removed, and culture medium was replaced with agarose-medium overlay containing serial concentrations of the tested drug(s). Plates were incubated for 7-14 days at 37° C. in a 5% CO2 incubator. Plaques were then counted microscopically.
The effect of a combination of artemisone with each one of ganciclovir (HCMV DNA polymerase), BDCRB (HCMV terminase inhibitor), brincidofovir (HCMV DNA polymerase inhibitor), maribavir (HCMV UL97 kinase inhibitor) and letermovir (HCMV terminase inhibitor) was evaluated by the classical plaque reduction assay. The in vitro activity of each of the above mentioned antiviral compounds alone or in combination with artemisone was evaluated by the classical plaque reduction assay, using HCMV TB40/E strain in human foreskin fibroblasts cells. The concentration of each antiviral compound that reduced the plaque formation by 50% (EC50) was determined as previously described in Wolf DG et al., J Clin Invest. 1995;95:257-63. The individual EC50 values in human foreskin fibroblasts were as follows: artemisone EC50 - 1 µM; ganciclovir EC50 - 1 µM; maribavir EC50 - 1 µM; BDCRB EC50 - 0.5 µM; letermovir EC50 - 5 nM; brincidofovir EC50 -1 nM.
For the 2-drug combination studies, the EC50 value of each drug was used to determine an equipotent ratio between the two compounds (EC50 of drug 1 / EC50 of drug 2). Serial 2-fold dilutions of a mixture comprising artemisone and another antiviral compound at initial concentrations equivalent to 4-fold the equipotent ratio were added to duplicate wells of cells infected with HCMV. Overall, 5 different concentrations of the drug combinations were used: 4xEC50, 2xEC50, 1xEC50,0.5xEC50,0.25xEC50. The cell monolayers were inoculated in 24-well culture plates with 0.2 ml of virus suspension containing 60 to 100 plaque-forming unit (PFU) per well; the Multiplicity of infection (MOI) was 0.001-0.002 PFU/cell).
D1 and D2 are the doses of the two drugs, and Dx is a dose causing to x% effect (LD0.5 is EC50). Briefly, the software extrapolated a combination index (CI) representing the interaction between the two drugs at specified levels of virus inhibition (that is 50%, 75%, 90%, 95%) versus the percentages of the inhibition induced by each drug alone and in combination (equation 16 in Chou).
A weighted average CI (CIwt) was then calculated for each combination as (CI50+ 2×CI75+3×CI90+4×CI95)/10, to access the drug combinatory effects.
The dose reduction index (DRI) was then calculated as described in Chou. In general, the DRI measures the fold of dose reduction of each drug in the combination at a given effect level compared with the doses of each drug alone. For each one of the below tables: Fa - fraction of virus affected; doses are provided in µm.

CC1CCC2[C@@H](C)[C@H](N3CCS(=O)(=O)CC3)OC3O[C@]4(C)CCC1C32OO4 (stereo in doubt) [artemisone]
Dose of drug alone at Fa 0.75 (Fa 0.75, drug alone, listed as Art): 2.189 µm and 2.23 µm and 3.071 µm | Dose of drug alone at Fa 0.9: 7.66 µm | Dose of drug alone at Fa 0.9 (listed as Art): 7.658 µm and 7.87 µm and 8.905 µm | Dose of drug alone at Fa 0.95 (Fa 0.95, drug alone, listed as Art): 17.9447 µm and 18.59 µm and 18.3723 µm | Dose of drug alone at Fa 0.97 (Fa 0.97, drug alone, listed as Art): 32.8918 µm and 34.26 µm and 30.7567 µm | EC50 (Fa 0.5, drug alone, read-out: Dose of drug alone at Fa 0.5): 626 nM | EC50 (drug alone, human foreskin fibroblasts, read-out: EC50 (concentration that reduced the plaque formation by 50%)): 1000 nM | DRI (dose reduction index) (combination artemisone + brincidofovir, Fa 0.05): 0.16 | DRI (dose reduction index) (combination artemisone + brincidofovir, Fa 0.5): 1.44 | DRI (dose reduction index) (combination artemisone + brincidofovir, Fa 0.75): 3.24 | DRI (dose reduction index) (combination artemisone + brincidofovir, Fa 0.9): up to 7 | DRI (dose reduction index) (combination artemisone + brincidofovir, Fa 0.9, listed as Art): 7.28 | DRI (dose reduction index) (combination artemisone + brincidofovir, Fa 0.95): 12.65 | DRI (dose reduction index) (combination artemisone + brincidofovir, Fa 0.97): 18.74 | DRI (dose reduction index) (combination artemisone + cidofovir, Fa 0.05): 0.3256 | DRI (dose reduction index) (combination artemisone + cidofovir, Fa 0.5): 2.047 | DRI (dose reduction index) (combination artemisone + cidofovir, Fa 0.75): 4.066 | DRI (dose reduction index) (combination artemisone + cidofovir, Fa 0.9): 8.07 | DRI (dose reduction index) (combination artemisone + cidofovir, Fa 0.9, listed as Art): 8.075 | DRI (dose reduction index) (combination artemisone + cidofovir, Fa 0.95): 12.8761 | DRI (dose reduction index) (combination artemisone + cidofovir, Fa 0.97): up to 17.9 | DRI (dose reduction index) (combination artemisone + cidofovir, Fa 0.97, listed as Art): 17.9464 | DRI (dose reduction index) (combination artemisone + ganciclovir, Fa 0.05): 0.2822 | DRI (dose reduction index) (combination artemisone + ganciclovir, Fa 0.5): 1.792 | DRI (dose reduction index) (combination artemisone + ganciclovir, Fa 0.75): 3.573 | DRI (dose reduction index) (combination artemisone + ganciclovir, Fa 0.9, listed as Art): 7.123 | DRI (dose reduction index) (combination artemisone + ganciclovir, Fa 0.95): 11.39 | DRI (dose reduction index) (combination artemisone + ganciclovir, Fa 0.95, listed as Art): 11.3872 | DRI (dose reduction index) (combination artemisone + ganciclovir, Fa 0.97): 15.9002 | DRI (dose reduction index) (combination artemisone + letermovir, Fa 0.05): 0.2276 | DRI (dose reduction index) (combination artemisone + letermovir, Fa 0.5): 1.624 | DRI (dose reduction index) (combination artemisone + letermovir, Fa 0.75): 3.38 | DRI (dose reduction index) (combination artemisone + letermovir, Fa 0.9): 7.04 | DRI (dose reduction index) (combination artemisone + letermovir, Fa 0.9, listed as Art): 7.037 | DRI (dose reduction index) (combination artemisone + letermovir, Fa 0.95): 11.5866 | DRI (dose reduction index) (combination artemisone + letermovir, Fa 0.97): up to 16 | DRI (dose reduction index) (combination artemisone + letermovir, Fa 0.97, listed as Art): 16.5217 | DRI (dose reduction index) (combination artemisone + maribavir, Fa 0.05): 7.032 | DRI (dose reduction index) (combination artemisone + maribavir, Fa 0.5): 15.7458 | DRI (dose reduction index) (combination artemisone + maribavir, Fa 0.75): 21.2706 | DRI (dose reduction index) (combination artemisone + maribavir, Fa 0.9): 28.7 | DRI (dose reduction index) (combination artemisone + maribavir, Fa 0.9, listed as Art): 28.7339 | DRI (dose reduction index) (combination artemisone + maribavir, Fa 0.95): 35.2558 | DRI (dose reduction index) (combination artemisone + maribavir, Fa 0.97): 40.8 | DRI (dose reduction index) (combination artemisone + maribavir, Fa 0.97, listed as Art): 40.7793
